In patent US6541463B1, “Inhibitors of type 5 and type 3 17β-hydroxysteroid dehydrogenase and methods for their use” (Endorecherche, Inc., priority 1998, dated 2003):

Key:
ZR-75-1 cells [1] = test: Estrogenic activity: stimulation of proliferation of ZR-75-1 cells; format: cell-based, human; conditions: for ZR-75-1 Activity, Basal E^−6 / ZR-75-1 Activity, Basal E^−8: Table 4′
Method: […] The manner in which the stimulation is determined is described in “Other Tests; C-Estrogenic/Antiestrogenic activity” Lower numbers are desirable. ND means that a determination was not done.
(§1) Estrogenic/antiestrogenic activity of some preferred compounds has been measured using the […] human breast cancer cell line as described in more detail below.
(§2) All media and medium supplments were purchased from Sigma. Cells were subcultured weekly by treatment with a pancreatic solution containing EDTA (0.2 g/L). The cell cultures used for the experiments herein describied were between passages 89 and 94.
(§3) Cells in their logarithmic growth phase were harvested, briefly centrifuged, and resuspended in RPMI 1640. Cells were then plated in triplicate in LIMBRO 24-well plastic culture plates (2 cm^2/well). Since plating density influences the effect of hormones on ZR-75-1 cell growth, cells were plated at a density of 1×10^4 cells/well. […] Control cultures received the ethanol vehicle only. Cells were then allowed to grow at 37° C. for 10 days with medium changes (of identical composition) every 2 days.
(§4) After E2 and/or antiestrogen treatment, cells were harvested by addition of 0.5 ml of a pancreatin solution (Sigma) for 5-10 min at 37° C. before addition of 0.5 mnl of RPMI 1640 containing 5% dextran coated […] bovine serum in order to block enzymatic action. Cell number (0.10 ml aliquot) was determined by measurement of DNA content as previously described (Simard et al., Endocrinology 126: 3223-3231,1990).

[2] = biological target: T1, human type 2 17β-hydroxysteroid dehydrogenase (Homo sapiens, UniProt P37059); test: Enzymatic assay for type 2 17β-HSD; format: biochemical; conditions: for inhibition / IC50: Table 4′; for inhibition: bracketed values, 3 · 10^−8M, read-out: Inhibition Type 2 17β-HSD Activity [% Inh. at 3 · 10^−8M]; for IC50: read-out: Inhibition Type 2 17β-HSD Activity IC50
T1 construct: expressed in transfected cells; host or cells: 293 cells, transient transfection; microsomal fraction (100 000×g pellet)
T1 sequence (P37059 1-387): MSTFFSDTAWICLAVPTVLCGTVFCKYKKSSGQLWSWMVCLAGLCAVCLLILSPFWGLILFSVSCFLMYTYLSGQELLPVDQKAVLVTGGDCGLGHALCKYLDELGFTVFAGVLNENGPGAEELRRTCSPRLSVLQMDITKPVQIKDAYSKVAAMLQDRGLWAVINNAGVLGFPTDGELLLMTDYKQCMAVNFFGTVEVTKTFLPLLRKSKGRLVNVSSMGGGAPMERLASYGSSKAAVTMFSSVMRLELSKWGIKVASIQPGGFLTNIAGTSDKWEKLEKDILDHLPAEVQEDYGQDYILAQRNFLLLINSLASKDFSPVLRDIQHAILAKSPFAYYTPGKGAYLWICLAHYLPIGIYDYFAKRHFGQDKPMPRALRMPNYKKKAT
Summary of the method: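 Enzymes from transiently transfected 293 cells (cytosol for type 1, microsomes for types 2 and 3 17β-HSD) were incubated 1 h at 37° C in pH 7.4 phosphate/20% glycerol with 2 mM NADPH or NAD+ and 0.1 μM 14C-substrate (estrone, 4-dione, or DHT for 3α-HSD); metabolites quantified by TLC; preliminary % inhibition at 3.10^−6M.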

ZR-75-1 cells [3] = test: Antiestrogenic activity: inhibition of E2-induced proliferation of ZR-75-1 cells; format: cell-based, human; parameters: ZR-75-1 Activity, E2 / ZR-75-1 Activity E2 E^−6: unit not given here; conditions: for ZR-75-1 Activity, E2 3E^−8: Table 4′, E2-induced proliferation
Method: The manner in which the inhibition is determined is described in “Other Tests; C-Estrogenic/Antiestrogenic Activity”. Lower numbers are desirable. ND means that a determination was not done.
as §1, §2, §3, §4

SMILES | ZR-75-1 Activity, Basal E^−6 (ZR-75-1 cells [1]) | ZR-75-1 Activity, Basal E^−8 (ZR-75-1 cells [1]) [%] | inhibition [2] [%] | ZR-75-1 Activity, E2 3E^−8 (ZR-75-1 cells [3]) | ZR-75-1 Activity, Basal (ZR-75-1 cells [1]; E^−6, in %) | ZR-75-1 Activity, Basal (ZR-75-1 cells [1]; E^−8, in %) | Inhibition Type 2 17β-HSD Activity [% Inh.] ([2]; at 3.10^-8M) | ZR-75-1 Activity, E2 (ZR-75-1 cells [3]; E2) | ZR-75-1 Activity, E2 (ZR-75-1 cells [3]; E2, E^−8) | IC50 [2] [µM]
COc1ccc2c(c1)CCC1C2CCC2(C)C1CCC21CCC(C)(C)C(=O)O1 (centres unmarked) [EM-1370] | +24% | 0 | 33 | 0% |  |  |  |  |  | 
CC(=O)[C@@]1(OC(=O)CCCCF)CCC2C3C=C(C)C4=CC(=O)CC[C@]4(C)C3CC[C@@]21C (some centres unmarked) [EM-1195-CS] |  |  |  |  | 18 | −11 | [40] % | −40 | −38 | 
COC(=O)C1CCC2(CCC3C4CCc5cc(O)ccc5C4CCC32C)OC1=O [PB-132-146, 3-Hydroxy-1,3,5(10)-estratrien-17(R)-2′-(5′-methoxycarbonyl-6′-oxo)tetrahydropyran] | 91% | 0 | 75 | 0% |  |  |  |  |  | 
CCOc1ccc2c(c1)CCC1C2CC[C@@]2(C)C1CC[C@@]21CCC(C)(C)C(=O)O1 (stereo partly drawn) [EM-1369, 3-Ethoxy-1,3,5(10)-estratrien-17(R)-spiro-2′-(5′,5′-dimethyl-6′-oxo)-tetrahydropyran] | +84% | 0 | 62 | +18% |  |  |  |  |  | 
COCCOc1cc2c(cc1C#N)C1CC[C@@]3(C)C(CC[C@@]34CCC(C)(C)C(=O)O4)C1CC2 (some centres unmarked) [EM-1396] | 0% | 0 |  | +12% |  |  |  |  |  | > 10
CC1CCC2(CCC3C4CCc5cc(O)c([N+](=O)[O-])cc5C4CCC32C)OC1=O [EM-1131, 2-Nitro-1,3,5(10)-estratrien-3-ol-17(R)-spiro-2′-(5′-methyl-6′-oxo)tetrahydropyran] | 15% | 7 | 70 | 0% |  |  |  |  |  | 
COc1ccc2c(c1)C(=O)CC1C3CCC4(CCC(C)(C)C(=O)O4)C3(C)CCC21O (centres unmarked) [EM-1386] | −12% | 0 |  | 0% |  |  |  |  |  | > 10
